Experimental data: ChEMBL document CHEMBL1148690, “Binding of ring-substituted indole-3-acetic acids to human serum albumin” (Bioorg Med Chem, 2007)

Assays:
[1] = Octanol-water partition coefficient, log Kow of the compound
Albumin = Albumin (Homo sapiens, UniProt P02768); test: Binding affinity to human serum albumin; conditions: isolated protein
Sequence of Albumin (P02768 whole entry): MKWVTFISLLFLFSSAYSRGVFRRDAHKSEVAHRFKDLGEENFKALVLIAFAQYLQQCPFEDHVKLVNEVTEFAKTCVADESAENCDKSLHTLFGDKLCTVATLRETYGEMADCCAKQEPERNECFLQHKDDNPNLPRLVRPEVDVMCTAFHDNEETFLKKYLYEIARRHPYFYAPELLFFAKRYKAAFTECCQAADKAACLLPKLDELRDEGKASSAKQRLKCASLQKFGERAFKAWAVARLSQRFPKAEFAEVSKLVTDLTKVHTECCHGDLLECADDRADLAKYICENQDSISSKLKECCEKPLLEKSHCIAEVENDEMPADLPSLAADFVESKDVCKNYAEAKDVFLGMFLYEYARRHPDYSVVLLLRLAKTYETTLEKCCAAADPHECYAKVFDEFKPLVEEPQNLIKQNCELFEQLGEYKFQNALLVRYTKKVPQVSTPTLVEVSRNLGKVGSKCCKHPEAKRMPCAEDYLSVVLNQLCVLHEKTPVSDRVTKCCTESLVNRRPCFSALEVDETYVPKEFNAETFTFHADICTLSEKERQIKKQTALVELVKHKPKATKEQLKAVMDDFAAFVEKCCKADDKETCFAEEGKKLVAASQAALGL

Row | Compound | logP [1] | logKA (Albumin)
1 | CCc1[nH]c2ccccc2c1CC(=O)O | 2.09 | 0.031
2 | Cc1cccc2[nH]cc(CC(=O)O)c12 | 1.84 | 0.155
3 | O=C(O)Cc1c[nH]c2c(Cl)cc(Cl)cc12 | 3.42 | 0.983
4 | CCOC(=O)Cc1c[nH]c2ccccc12 | 2.34 | 0.292
5 | CCCc1ccc2[nH]cc(CC(=O)O)c2c1 | 3.21 | 0.809
6 | Cc1ccc2c(CC(=O)O)c[nH]c2c1 | 1.96 | 0.689
7 | Cc1cccc2c(CC(=O)O)c[nH]c12 | 1.95 | 0.288
8 | O=C(O)Cc1c[nH]c2ccc(Cl)c(Cl)c12 | 2.92 | 0.799
9 | O=C(O)Cc1c[nH]c2c(Cl)ccc(Cl)c12 | 3.02 | 0.84
10 | O=C(O)Cc1c[nH]c2cccc(Cl)c12 | 2.13 | 0.458
11 | O=C(O)Cc1c[nH]c2ccc(Cl)cc12 | 2.38 | 0.646
12 | O=C(O)Cc1c[nH]c2c(Cl)cccc12 | 2.32 | 0.623
13 | Cc1[nH]c2ccccc2c1CC(=O)O | 1.72 | -0.04
14 | O=C(O)Cc1c[nH]c2ccc(OCc3ccccc3)cc12 | 3.2 | –
15 | CCc1ccc2c(CC(=O)O)c[nH]c2c1 | 2.56 | 1.044
16 | O=C(O)Cc1c[nH]c2c(F)cccc12 | 1.81 | 0.247
17 | O=C(O)Cc1c[nH]c2cc(Cl)c(Cl)cc12 | 3.2 | 1.436

Row | Compound | logP [1] | logKA (Albumin)
18 | O=C(O)Cc1c[nH]c2ncccc12 | 0.45 | -0.314
19 | O=C(O)Cc1c[nH]c2ccc(O)cc12 | 0.74 | -0.125
20 | CCCc1[nH]c2ccccc2c1CC(=O)O | 2.56 | 0.15
21 | CCc1cccc2[nH]cc(CC(=O)O)c12 | 2.33 | 0.393
22 | CCc1ccc2[nH]cc(CC(=O)O)c2c1 | 2.54 | 0.49
23 | O=C(O)Cc1c[nH]c2c(Cl)c(Cl)ccc12 | 3.16 | 1.09
24 | CCCCc1ccc2[nH]cc(CC(=O)O)c2c1 | 3.89 | 1.05
25 | Cc1ccc2[nH]cc(CC(=O)O)c2c1 | 1.99 | 0.217
26 | O=C(O)Cc1c[nH]c2cc(F)ccc12 | 1.74 | 0.308
27 | O=C(O)Cc1c[nH]c2cc(Cl)cc(Cl)c12 | 3.29 | 1.082
28 | O=C(O)Cc1c[nH]c2ccc(F)cc12 | 1.72 | 0.261
29 | Cn1cc(CC(=O)O)c2ccccc21 | 1.87 | 0.243
30 | COc1ccc2[nH]cc(CC(=O)O)c2c1 | 1.23 | 0.185
31 | O=C(O)Cc1c[nH]c2cc(Cl)ccc12 | 2.41 | 0.863
32 | O=C(O)Cc1c[nH]c2cccc(F)c12 | 1.66 | 0.305
33 | COc1ccc2[nH]c(C)c(CC(=O)O)c2c1 [DESCHLOROBENZOYL INDOMETHACIN] | 2.14 | 0.228
34 | O=C(O)Cc1c[nH]c2ccccc12 [INDOLE-3-ACETIC ACID] | 1.42 | 0.102
